Measured values taken from ChEMBL document CHEMBL1201862, “PubChem BioAssay data set” (2004).
Calls of active or inactive are those of the source.

How the values were obtained:
[1] = target: T1, Sentrin-specific protease 1 (Homo sapiens, UniProt Q9P0U3); experiment: Dose response confirmation of small molecule inhibitors of the catalytic domain of the SUMO protease, SENP1 in a FRET assay.; type: functional; details: read-out: IC50_Mean
[2] = target: T2, Endoribonuclease toxin MazF (Escherichia coli K-12, UniProt P0AE70); experiment: substrate-only fluorescence increase artefacts – biochemical, single-stranded RNase substrate, counter-screen for MazEF activator project, dose response (AID 588502); type: functional
T2 sequence (P0AE70 whole entry): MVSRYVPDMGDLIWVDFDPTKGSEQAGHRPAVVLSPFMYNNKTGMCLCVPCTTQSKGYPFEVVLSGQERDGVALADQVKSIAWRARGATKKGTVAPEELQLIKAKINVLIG

[3] = target: T3, Zinc finger protein mex-5 (Caenorhabditis elegans, UniProt Q9XUB2); experiment: potency of MEX-5 RNA-binding blockers – biochemical, C. elegans, fluorescence polarization, dose response (AID 1960)
T3 sequence (Q9XUB2 whole entry): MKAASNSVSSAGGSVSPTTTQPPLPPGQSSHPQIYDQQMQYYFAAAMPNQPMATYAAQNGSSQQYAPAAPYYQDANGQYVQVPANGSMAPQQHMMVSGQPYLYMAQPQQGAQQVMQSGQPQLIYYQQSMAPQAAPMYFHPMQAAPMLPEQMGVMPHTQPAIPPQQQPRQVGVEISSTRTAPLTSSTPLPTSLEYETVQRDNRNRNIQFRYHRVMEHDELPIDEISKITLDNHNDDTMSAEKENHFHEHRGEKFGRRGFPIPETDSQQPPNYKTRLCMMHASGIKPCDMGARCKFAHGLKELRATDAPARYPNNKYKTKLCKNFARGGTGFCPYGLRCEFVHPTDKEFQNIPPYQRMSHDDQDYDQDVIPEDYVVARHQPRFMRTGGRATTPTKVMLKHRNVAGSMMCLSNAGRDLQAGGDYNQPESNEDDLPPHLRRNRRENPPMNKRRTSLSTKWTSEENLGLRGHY

[4] = target: T4, RNA-binding protein pos-1 (Caenorhabditis elegans, UniProt G5EF15); experiment: disruptors of C. elegans POS-1 RNA interaction – biochemical, fluorescence polarization, dose response (AID 1964);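 note: purified POS-1 fused to maltose binding protein made in E. coli; potency of compounds blocking POS-1 binding to fluorescent RNA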
T4 sequence (G5EF15 whole entry): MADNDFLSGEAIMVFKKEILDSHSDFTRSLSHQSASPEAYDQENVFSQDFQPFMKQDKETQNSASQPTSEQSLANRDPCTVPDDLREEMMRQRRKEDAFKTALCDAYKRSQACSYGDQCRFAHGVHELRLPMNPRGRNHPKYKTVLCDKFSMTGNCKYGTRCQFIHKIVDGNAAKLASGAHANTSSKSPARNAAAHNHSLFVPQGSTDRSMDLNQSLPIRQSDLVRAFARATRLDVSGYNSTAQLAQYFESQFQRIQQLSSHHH

[5] = target: T1, Sentrin-specific protease 1; experiment: SENP1 catalytic domain blockers, concentration series – biochemical, kinetic FRET, dose response (AID 651697); type: functional; details: read-out: IC50_Mean
[6] = target: T2, Endoribonuclease toxin MazF; experiment: activation of MazEF endoribonuclease cleavage – biochemical, fluorescence, single-stranded RNA substrate, uHTS hits, dose response (AID 588481); type: functional
Mu-type opioid receptor = Mu-type opioid receptor (Homo sapiens, UniProt P35372); type: functional, cell-based;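 note: U2OS cells with beta-arrestin recruitment to OPRM1 by beta-gal complementation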
[7] = target: 5-hydroxytryptamine receptor 2A (Mus musculus, UniProt P35363); type: functional, cell-based;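 note: CHO-K1 cells with tagged receptor and beta-arrestin; agonist potency measured as compound-induced activation of the receptor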
[8] = target: T5, Sentrin-specific protease 7 (Homo sapiens, UniProt Q9BQF6); type: functional;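 note: Luminescence-based dose-response confirmation of ultra-high-throughput screening hits, measuring inhibition of SENP7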
T5 sequence (Q9BQF6 whole entry): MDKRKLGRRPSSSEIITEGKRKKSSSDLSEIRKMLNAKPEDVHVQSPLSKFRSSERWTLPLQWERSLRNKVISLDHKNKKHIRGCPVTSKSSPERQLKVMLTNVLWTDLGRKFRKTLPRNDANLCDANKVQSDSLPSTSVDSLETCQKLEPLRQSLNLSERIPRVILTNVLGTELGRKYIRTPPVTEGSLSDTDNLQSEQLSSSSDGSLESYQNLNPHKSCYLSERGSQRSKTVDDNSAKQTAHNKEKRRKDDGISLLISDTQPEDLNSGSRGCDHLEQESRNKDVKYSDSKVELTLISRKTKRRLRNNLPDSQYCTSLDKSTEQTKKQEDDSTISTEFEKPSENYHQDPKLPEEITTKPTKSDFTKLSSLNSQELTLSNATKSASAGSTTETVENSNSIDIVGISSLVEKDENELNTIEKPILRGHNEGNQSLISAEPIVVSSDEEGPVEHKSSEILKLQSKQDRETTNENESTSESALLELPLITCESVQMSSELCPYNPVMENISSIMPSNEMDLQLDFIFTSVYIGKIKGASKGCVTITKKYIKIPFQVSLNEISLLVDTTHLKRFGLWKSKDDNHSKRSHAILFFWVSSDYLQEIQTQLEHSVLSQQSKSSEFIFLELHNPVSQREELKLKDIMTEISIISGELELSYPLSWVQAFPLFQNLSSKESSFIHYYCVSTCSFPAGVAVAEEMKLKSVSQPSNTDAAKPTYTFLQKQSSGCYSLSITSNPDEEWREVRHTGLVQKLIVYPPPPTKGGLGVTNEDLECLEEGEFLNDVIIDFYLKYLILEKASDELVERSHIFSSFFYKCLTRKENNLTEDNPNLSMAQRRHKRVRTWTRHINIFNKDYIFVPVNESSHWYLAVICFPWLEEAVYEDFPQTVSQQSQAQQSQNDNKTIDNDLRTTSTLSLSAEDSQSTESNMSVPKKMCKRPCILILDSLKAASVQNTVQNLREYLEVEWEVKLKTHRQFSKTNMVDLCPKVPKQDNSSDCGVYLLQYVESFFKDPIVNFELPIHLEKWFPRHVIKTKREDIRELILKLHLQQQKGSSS

[9] = target: T6, Low molecular weight phosphotyrosine protein phosphatase (Homo sapiens, UniProt P24666); type: functional; details: read-out: IC50_Mean
T6 sequence (P24666 whole entry): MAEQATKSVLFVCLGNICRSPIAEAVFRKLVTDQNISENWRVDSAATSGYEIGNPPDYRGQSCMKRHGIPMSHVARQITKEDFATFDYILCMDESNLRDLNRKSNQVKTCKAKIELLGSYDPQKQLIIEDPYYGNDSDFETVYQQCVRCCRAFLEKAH

[10] = target: T7, Sentrin-specific protease 6 (Homo sapiens, UniProt Q9GZR1); type: functional;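 note: Luminescence-based dose-response confirmatory assay of SENP6 inhibition, following up an ultra-high-throughput screen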
T7 sequence (Q9GZR1 whole entry): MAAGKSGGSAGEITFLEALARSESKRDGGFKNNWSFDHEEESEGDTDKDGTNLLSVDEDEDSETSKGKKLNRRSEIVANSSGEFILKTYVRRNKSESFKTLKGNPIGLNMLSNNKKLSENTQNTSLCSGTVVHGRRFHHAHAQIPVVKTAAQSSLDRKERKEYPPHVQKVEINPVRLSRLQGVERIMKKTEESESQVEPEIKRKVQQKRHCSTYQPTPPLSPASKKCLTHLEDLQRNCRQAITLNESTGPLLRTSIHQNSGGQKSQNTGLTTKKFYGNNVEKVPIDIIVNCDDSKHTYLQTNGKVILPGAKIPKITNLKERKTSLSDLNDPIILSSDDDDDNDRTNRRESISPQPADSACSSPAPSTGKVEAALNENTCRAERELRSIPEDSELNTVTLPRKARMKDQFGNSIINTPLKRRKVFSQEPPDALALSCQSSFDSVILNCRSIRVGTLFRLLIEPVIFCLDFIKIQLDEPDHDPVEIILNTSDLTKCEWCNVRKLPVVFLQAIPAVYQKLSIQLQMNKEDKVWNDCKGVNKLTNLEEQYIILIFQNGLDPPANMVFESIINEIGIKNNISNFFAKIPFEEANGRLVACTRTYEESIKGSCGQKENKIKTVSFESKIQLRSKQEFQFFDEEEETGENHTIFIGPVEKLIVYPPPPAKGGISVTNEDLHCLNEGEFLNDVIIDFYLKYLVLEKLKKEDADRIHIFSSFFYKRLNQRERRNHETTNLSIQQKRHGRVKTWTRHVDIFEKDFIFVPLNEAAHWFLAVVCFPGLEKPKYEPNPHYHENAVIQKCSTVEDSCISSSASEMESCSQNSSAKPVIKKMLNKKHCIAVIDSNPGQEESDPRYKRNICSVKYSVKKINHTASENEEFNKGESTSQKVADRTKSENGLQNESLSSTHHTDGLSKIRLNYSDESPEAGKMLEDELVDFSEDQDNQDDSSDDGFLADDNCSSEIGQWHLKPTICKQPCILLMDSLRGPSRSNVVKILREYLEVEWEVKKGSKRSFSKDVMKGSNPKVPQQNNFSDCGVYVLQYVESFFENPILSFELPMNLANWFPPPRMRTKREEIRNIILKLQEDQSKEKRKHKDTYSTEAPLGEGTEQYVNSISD

[11] = target: T8, Sentrin-specific protease 8 (Homo sapiens, UniProt Q96LD8); type: functional;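 note: luminescence read-out of SENP8 inhibition, dose-response confirmation following an ultra-high-throughput screen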
T8 sequence (Q96LD8 whole entry): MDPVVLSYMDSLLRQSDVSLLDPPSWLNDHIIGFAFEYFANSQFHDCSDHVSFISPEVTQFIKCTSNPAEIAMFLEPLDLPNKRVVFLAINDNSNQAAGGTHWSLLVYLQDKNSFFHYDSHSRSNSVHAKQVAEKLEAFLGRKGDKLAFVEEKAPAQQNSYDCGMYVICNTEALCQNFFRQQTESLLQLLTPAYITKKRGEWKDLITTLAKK

[12] = target: T6, Low molecular weight phosphotyrosine protein phosphatase; type: functional; details: read-out: IC50_Mean; remark: listed apart in the source
Caspase-3 = target: T9, Caspase-3 (Homo sapiens, UniProt P42574); type: functional;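 note: Dose-response selectivity test against caspase-3 for candidate inhibitors of sentrin-specific proteases (SENPs)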
T9 sequence (P42574 whole entry): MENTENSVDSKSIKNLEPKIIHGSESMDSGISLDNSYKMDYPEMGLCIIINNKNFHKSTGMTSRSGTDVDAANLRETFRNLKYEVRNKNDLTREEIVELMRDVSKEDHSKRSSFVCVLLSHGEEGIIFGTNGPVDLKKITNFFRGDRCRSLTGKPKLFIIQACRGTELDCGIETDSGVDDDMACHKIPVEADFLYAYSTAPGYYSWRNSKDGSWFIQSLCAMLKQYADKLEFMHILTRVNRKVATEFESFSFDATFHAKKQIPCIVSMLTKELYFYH

[13] = target: T10, Tyrosine-protein phosphatase non-receptor type 22 (Homo sapiens, UniProt Q9Y2R2); experiment: PTPN22 enzyme inhibitors – biochemical, fluorescence, LYP catalytic domain, selectivity assay for LMPTP inhibitor project, dose response (AID 652006); type: functional; details: read-out: IC50_Mean
T10 sequence (Q9Y2R2 whole entry): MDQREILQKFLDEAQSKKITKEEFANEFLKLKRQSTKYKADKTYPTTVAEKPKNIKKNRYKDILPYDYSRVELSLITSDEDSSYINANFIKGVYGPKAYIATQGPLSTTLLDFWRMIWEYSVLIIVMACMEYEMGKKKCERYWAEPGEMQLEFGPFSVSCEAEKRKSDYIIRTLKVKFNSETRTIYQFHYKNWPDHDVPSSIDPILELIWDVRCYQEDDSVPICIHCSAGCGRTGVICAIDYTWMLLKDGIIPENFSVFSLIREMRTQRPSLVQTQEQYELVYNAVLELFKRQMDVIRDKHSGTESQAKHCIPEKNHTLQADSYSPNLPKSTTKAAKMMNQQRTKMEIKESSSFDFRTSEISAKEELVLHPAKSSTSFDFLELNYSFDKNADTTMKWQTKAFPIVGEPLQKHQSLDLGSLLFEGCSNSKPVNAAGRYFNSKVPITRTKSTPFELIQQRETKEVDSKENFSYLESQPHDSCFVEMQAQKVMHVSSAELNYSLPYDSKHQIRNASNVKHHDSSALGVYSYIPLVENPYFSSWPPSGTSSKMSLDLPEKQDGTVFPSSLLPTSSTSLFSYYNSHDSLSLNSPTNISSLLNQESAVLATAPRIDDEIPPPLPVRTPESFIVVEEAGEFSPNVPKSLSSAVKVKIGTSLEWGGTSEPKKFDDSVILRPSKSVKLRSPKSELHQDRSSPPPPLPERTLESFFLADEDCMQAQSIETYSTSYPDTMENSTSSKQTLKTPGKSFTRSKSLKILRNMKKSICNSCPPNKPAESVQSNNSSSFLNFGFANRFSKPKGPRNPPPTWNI

[14] = target: ATP-dependent translocase ABCB1 (Homo sapiens, UniProt P08183); experiment: inhibition of P-gp mediated JC-1 efflux – Jurkat-DNR cells, flow cytometry, dose response (AID 1689); type: functional
[15] = target: Broad substrate specificity ATP-binding cassette transporter ABCG2 (Homo sapiens, UniProt Q9UNQ0); experiment: blockers of JC-1 export by ABCG2 – Ig-MXP3 cells, flow cytometry, dose response (AID 1690); type: functional
Beta-lactamase [16] = target: Beta-lactamase (Salmonella choleraesuis (strain SC-B67), UniProt Q5J463); experiment: Epi-absorbance-based counterscreen for selective VIM-2 inhibitors: dose response biochemical high throughput screening assay to identify inhibitors of TEM-1 serine-beta-lactamase.
Beta-lactamase [17] = target: T11, Beta-lactamase (Pseudomonas aeruginosa, UniProt Q79MP6); experiment: inhibition of IMP-1 beta-lactamase activity – biochemical, epi-absorbance, selectivity assay for VIM-2 inhibitor project, dose response (AID 1920)
Beta-lactamase [18] = target: T11, Beta-lactamase; experiment: […] counterscreen for selective VIM-2 inhibitors: dose response biochemical high throughput screening assay to identify inhibitors of IMP-1 metallo-beta-lactamase.

T1 sequence (Q9P0U3 whole entry, the tested form may be a part): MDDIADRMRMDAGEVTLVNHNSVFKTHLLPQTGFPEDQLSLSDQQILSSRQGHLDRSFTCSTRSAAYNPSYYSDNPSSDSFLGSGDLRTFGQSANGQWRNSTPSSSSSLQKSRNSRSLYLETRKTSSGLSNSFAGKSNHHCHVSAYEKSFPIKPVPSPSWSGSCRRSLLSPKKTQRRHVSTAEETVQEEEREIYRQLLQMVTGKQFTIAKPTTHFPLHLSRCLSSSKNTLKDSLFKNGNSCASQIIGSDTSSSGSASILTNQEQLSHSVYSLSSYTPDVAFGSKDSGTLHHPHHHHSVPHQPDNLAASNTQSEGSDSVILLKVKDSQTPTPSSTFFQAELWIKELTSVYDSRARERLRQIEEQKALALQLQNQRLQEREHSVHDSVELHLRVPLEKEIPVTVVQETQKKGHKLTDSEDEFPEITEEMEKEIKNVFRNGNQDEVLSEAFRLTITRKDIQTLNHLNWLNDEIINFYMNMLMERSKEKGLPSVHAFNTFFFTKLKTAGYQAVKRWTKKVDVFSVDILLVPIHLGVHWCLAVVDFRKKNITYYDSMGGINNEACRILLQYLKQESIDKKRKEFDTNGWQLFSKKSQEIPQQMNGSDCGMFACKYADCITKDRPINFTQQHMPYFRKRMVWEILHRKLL
T11 sequence (Q79MP6 whole entry): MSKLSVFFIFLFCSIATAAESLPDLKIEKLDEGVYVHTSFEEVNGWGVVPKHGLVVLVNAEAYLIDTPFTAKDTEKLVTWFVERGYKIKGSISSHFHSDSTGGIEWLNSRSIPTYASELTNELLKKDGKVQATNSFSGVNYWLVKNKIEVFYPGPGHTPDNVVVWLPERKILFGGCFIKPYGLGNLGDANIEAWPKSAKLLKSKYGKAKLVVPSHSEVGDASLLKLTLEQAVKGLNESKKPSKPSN
Chain of Broad substrate specificity ATP-binding cassette transporter ABCG2 (Q9UNQ0 whole entry): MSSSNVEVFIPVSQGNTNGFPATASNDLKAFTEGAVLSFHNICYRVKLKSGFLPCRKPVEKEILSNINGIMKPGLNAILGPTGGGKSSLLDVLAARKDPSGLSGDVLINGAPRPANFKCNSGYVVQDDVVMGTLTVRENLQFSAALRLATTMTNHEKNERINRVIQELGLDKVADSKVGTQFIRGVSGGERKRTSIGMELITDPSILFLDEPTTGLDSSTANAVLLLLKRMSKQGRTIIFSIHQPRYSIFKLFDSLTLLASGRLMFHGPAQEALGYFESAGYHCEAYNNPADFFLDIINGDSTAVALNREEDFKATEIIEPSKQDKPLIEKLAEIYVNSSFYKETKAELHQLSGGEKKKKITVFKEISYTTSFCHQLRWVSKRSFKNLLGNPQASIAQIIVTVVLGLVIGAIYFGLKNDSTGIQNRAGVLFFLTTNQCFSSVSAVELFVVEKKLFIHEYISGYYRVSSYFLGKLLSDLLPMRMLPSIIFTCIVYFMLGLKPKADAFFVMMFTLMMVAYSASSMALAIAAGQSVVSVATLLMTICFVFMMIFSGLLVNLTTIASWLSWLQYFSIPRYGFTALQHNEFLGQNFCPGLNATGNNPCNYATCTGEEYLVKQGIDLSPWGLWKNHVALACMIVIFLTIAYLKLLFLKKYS
Chain of 5-hydroxytryptamine receptor 2A (P35363 whole entry): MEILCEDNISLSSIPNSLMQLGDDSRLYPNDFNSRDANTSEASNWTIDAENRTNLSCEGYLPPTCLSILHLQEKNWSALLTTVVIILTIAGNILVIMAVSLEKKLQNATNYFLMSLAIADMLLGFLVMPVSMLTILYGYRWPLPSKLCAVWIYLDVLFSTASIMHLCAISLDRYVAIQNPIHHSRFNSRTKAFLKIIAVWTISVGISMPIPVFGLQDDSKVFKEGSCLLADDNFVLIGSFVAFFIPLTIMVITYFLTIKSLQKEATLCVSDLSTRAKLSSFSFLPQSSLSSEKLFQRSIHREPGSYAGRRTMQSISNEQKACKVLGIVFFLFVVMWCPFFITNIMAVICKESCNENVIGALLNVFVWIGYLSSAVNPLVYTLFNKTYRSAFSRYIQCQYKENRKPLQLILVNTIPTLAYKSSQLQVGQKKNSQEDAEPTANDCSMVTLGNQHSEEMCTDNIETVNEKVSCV
Chain of Mu-type opioid receptor (P35372 whole entry): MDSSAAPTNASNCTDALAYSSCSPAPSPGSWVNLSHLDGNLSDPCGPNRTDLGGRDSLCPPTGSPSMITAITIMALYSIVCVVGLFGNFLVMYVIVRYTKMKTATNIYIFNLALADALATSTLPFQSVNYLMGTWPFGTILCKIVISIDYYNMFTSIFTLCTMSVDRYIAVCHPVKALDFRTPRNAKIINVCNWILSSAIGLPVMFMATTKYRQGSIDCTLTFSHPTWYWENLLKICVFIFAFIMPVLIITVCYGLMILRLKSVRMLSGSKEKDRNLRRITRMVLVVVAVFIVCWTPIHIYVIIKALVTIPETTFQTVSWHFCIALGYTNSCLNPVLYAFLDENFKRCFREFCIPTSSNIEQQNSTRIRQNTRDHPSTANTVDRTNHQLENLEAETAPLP
Chain of Beta-lactamase (Salmonella choleraesuis (strain SC-B67), UniProt Q5J463) (Q5J463 whole entry): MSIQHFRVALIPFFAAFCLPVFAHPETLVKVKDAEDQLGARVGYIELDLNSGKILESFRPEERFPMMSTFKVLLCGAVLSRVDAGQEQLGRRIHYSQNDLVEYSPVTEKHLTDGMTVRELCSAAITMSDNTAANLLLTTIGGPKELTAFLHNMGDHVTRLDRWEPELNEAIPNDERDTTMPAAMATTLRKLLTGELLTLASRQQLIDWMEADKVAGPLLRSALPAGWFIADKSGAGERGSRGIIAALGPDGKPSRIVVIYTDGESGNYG
Chain of ATP-dependent translocase ABCB1 (P08183 whole entry): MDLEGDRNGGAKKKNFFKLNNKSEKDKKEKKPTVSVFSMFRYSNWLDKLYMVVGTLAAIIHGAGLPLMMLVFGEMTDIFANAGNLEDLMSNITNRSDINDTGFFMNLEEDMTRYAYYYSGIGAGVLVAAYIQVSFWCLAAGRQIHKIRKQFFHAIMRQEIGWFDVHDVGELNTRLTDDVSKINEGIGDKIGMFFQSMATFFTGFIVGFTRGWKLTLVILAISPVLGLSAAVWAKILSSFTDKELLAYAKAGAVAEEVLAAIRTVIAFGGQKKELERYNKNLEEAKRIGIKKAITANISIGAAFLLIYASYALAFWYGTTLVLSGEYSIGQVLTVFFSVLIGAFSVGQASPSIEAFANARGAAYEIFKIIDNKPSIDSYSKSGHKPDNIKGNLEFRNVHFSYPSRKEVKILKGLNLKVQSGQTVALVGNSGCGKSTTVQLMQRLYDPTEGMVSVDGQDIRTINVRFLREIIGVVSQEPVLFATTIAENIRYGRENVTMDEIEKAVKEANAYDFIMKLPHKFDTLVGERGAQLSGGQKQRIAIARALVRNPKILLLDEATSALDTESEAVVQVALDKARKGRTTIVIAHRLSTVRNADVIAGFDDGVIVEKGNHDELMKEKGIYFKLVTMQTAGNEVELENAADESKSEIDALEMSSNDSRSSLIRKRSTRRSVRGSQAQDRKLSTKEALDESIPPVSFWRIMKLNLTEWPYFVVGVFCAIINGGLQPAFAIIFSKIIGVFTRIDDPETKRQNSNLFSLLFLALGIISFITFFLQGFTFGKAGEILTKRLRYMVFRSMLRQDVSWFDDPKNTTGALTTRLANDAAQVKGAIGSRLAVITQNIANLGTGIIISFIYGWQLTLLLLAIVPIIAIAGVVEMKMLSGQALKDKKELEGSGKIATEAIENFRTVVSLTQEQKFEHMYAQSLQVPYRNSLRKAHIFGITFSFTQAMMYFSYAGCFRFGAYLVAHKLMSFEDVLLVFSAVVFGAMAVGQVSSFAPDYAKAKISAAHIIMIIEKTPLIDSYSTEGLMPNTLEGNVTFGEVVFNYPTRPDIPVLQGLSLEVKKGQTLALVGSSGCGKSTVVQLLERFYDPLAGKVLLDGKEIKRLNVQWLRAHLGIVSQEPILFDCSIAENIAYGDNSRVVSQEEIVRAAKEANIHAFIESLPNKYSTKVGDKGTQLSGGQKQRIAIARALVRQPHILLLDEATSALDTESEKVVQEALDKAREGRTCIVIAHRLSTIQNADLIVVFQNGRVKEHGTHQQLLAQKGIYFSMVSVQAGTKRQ

## COc1ccc2c(c1)c1nc3ccccc3nc1n2Cc1ccc(OC)c(OC)c1
[1]
  IC50: 6.84 µM (active)
[2]
  EC50: 87.9 µM (inactive)
[3]
  EC50: 43.1 µM (active)
[4]
  EC50: 32.6 µM (active)
[5]
  IC50: 14.1 µM (active)
[6]
  EC50: > 99 µM (inactive)

## O=C(C1CCN(CCCc2ccccc2)CC1)N1CCCCC1
Mu-type opioid receptor
  EC50: 92.5 µM (inactive)
[7]
  EC50: 76.1 µM (inactive)

## O=C(/C=C/c1ccc(Br)cc1)NC(=O)c1ccccc1O
[8]
  IC50: 8.1 µM (active)
[9]
  IC50: 22.2 µM (inactive)
[10]
  IC50: 15.2 µM (active)
[11]
  IC50: 26.9 µM (active)
[12]
  IC50: 9.98 µM (active)
Caspase-3
  IC50: > 100 µM (inactive)
[13]
  IC50: 43.6 µM (inactive)

## N#Cc1ccc(-c2ccc(OCC(=O)NCCc3ccccc3)cc2)cc1
[14]
  EC50: 11.1 µM (inactive)
[15]
  EC50: 3.76 µM (active)

## CC1=C(C(=O)O)N2C(=O)C(NC(=O)c3nn(C)cc3[N+](=O)[O-])C2SC1 (stereo not given)
Beta-lactamase [16]
  IC50: > 59.6 µM (inactive)
Beta-lactamase [17]
  IC50: > 59.6 µM (inactive)
Beta-lactamase [18]
  IC50: > 59.6 µM (inactive)
